US9193768B2, “Peptide for inhibition of binding between angiopoietin-2 and integrin and use thereof” (Samsung Electronics Co., Ltd., priority 2012, dated 2015)
Entries after “also recorded” stand apart in the source; their conditions may differ.

How the values were obtained:
U87MG cells [1] = assay: Ang2 dependent adhesion of U87MG cells to Ang2-coated wells (CellTiter-Glo luminescence); assay type: cell-based, human; settings: for Ang2 dependent cell adhesion inhibition activity: Example 5.2, peptide 100 μg/ml, among the 41 peptides; for inhibition activity against the binding of Ang2 and integrin: FIG. 10, U87MG adhesion to Ang2-coated wells, each peptide 100 μg/ml
Protocol: A 96-well plate was treated with 100 μl of a solution obtained by diluting Ang2 (R&D systems; 623-AN-025/CF) in a phosphate buffered saline (PBS) at a concentration of 10 μg/ml and incubated at 4° C. for 16 hours so that the wells were coated with Ang2. Thereafter, the Ang2-coated 96 wells were washed twice with PBS, treated with 200 μl of PBS containing 2% (v/v) bovine serum albumin (BSA) and then incubated at a room temperature for 2 hours for blocking. For a negative control, wells that were blocked without Ang2 coating (i.e., treated with BSA only) were prepared.
150 μl of the thus obtained cell suspension was added to each well of the 96-well plate that was prepared by performing coating and blocking procedures and incubating the plate in a CO2 incubator at 37° C. for 2 hours to induce cell adhesion.
Then, the plate was washed 4 times with serum-free media that was warmed to 37° C. to remove cells that were not adhered. The adhesion level of cells was quantified by adding 200 μl of CellTiter-Glo reagent (Promega) diluted in IMDM at 1:1 and then, measuring luminescence at EnVision® Multilabel Reader (PerkinElmer) after 10 min.
When Ang2-coated plates were treated with U87MG cells in accordance with the same methods as in Example 1.1, they were co-treated with one of the 41 peptides derived from Ang2 set forth in Table 2 to investigate the inhibition effects of the peptides against the adhesion of U87MG cells (see FIG. 8). Each peptide was treated at a concentration of 100 μg/ml and the number of U87MG cells treated with each peptide was about 4×10^4. The measurement of cell adhesion level was carried out in the same manner as Example 1.1. That is, after the addition of 200 μl of CellTiter-Glo reagent (Promega) diluted in IMDM at 1:1, their luminescence was measured at EnVision® Multilabel Reader (PerkinElmer) after 10 min.
When Ang2-coated plates were treated with U87MG cells in accordance with the same methods as in Example 1.1, they were co-treated with the C-body produced in Example 8 to investigate inhibition effects of C-body treatment on the adhesion of U87MG cells. The C-body was treated at a concentration of 20 μg/ml or 5 μg/ml, and the number of U87MG cells used was about 4×10^4 at each concentration.

U87MG cells [2] = assay: U87MG cancer cell invasion in matrigel-coated transwell chamber; assay type: cell-based, human; settings: 5 μg/ml in lower chamber, 48 hours; FIG. 14
Protocol: U87MG cells which underwent serum starvation for two days were detached using a cell dissociation solution (EDTA solution) and diluted in 0% serum IMDM media, and then 7.5×10^4 of the cells were each treated in an upper chamber of a matrigel-coated transwell chamber (24 wells, BD bioscience). Lower chambers were filled with a diluent obtained by diluting wild type Ang2 protein or its Q362A modified form (see Example 6) in 2% serum IMDM media at a concentration of 5 μg/ml. After 48 hours passed, the cells were dyed using calcein-AM solution (4 μg/ml; BD Biosciences) and observed using a fluorescence microscope to measure the number of the cells which invaded toward the bottom.
The left part of FIG. 14 indicates the number of the cells that migrated to the lower chambers, and the right part illustrates the observation results of fluorescence treatment of the cells which migrated to the lower chambers, using a fluorescence microscope. In FIG. 14, ‘−’ indicates a negative control where the lower chamber was not treated with Ang2 protein or its modified form.

integrin (αVβ3) = target: T1, integrin (αVβ3) (Homo sapiens, UniProt P05106+P06756); assay: ELISA: binding of Ang2 protein (wild type or Q362A) to coated integrin; settings: 5 μg/ml protein, FIG. 11
T1 construct: purchased R&D systems
T1 sequence (P06756 31-889 limits assumed): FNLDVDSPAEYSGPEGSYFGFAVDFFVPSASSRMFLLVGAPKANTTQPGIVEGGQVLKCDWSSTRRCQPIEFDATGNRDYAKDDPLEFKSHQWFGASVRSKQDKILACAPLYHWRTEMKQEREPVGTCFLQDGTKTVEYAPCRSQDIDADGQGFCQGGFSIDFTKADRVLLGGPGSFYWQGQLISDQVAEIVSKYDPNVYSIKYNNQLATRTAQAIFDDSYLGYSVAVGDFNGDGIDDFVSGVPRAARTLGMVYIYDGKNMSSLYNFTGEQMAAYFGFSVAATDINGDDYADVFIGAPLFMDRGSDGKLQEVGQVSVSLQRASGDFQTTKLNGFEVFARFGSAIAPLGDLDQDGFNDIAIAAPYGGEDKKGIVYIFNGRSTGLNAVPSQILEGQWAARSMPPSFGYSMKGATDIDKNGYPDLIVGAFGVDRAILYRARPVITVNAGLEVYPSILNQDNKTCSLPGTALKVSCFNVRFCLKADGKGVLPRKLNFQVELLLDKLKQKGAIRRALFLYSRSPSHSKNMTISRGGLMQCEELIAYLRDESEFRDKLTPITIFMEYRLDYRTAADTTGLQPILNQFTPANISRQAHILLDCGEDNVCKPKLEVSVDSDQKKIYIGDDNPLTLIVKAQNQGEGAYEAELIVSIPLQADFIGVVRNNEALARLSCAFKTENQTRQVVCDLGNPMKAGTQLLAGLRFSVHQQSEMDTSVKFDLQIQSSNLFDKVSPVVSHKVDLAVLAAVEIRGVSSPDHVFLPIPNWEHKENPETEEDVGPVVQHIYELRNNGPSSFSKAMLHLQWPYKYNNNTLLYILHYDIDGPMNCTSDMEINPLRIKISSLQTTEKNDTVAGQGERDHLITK
T1 sequence (P06756 891-992 partner limits assumed): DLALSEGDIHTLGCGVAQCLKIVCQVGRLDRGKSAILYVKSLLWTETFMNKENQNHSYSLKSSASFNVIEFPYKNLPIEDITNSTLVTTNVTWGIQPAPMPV
T1 sequence (P05106 27-718 limits assumed): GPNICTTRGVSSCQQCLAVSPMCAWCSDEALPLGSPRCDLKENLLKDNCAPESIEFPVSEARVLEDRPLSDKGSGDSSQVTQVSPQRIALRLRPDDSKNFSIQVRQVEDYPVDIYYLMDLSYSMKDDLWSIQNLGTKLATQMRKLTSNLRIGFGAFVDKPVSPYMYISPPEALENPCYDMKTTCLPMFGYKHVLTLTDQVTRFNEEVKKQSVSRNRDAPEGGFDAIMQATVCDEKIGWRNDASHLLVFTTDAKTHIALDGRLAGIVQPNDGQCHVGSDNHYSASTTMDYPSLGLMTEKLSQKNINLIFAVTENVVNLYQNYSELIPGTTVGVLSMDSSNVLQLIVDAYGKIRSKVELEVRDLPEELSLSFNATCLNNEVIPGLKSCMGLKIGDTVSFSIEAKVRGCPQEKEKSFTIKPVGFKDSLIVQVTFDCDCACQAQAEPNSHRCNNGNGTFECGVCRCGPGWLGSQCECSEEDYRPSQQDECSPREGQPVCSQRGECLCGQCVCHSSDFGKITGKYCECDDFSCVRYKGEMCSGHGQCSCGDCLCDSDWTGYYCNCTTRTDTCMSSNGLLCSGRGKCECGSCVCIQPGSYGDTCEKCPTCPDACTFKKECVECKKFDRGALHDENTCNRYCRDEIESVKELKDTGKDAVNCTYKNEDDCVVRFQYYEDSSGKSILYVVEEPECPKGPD
Protocol: After an ELISA plate was coated with diluents obtained by diluting 3 kinds of integrin proteins (alpha5beta1 (α5β1; α5: NCBI Accession No. P08648, β1: NCBI Accession No. P05556), alphaVbeta1 (αVβ1; αV: NCBI Accession No. P06756, β1: NCBI Accession No. P05556), and alphaVbeta3 (αVβ3; αV: NCBI Accession No. P06756, β3: NCBI Accession No. P05106); R&D systems)) in PBS at a concentration of 5 μg/ml (18 hours, 4° C.), it was blocked with 1% (v/v) BSA at a room temperature for 2 hours. Thereafter, it was treated with Ang2 protein having FLAG sequences (DYKDDDDK, Sigma) tagged at its N-terminal (FLAG-Ang2, 0.1 ml of Ang2 protein solution diluted in PBS at a concentration of 10 μg/ml), incubated at a room temperature for 2 hours, and washed 5 times with PBS-t (0.1% (v/v) triton X-100 in PBS). Then, it was followed by the addition of anti-FLAG antibody (Sigma) conjugated with horse radish peroxidase (HRP) and washed 5 times with PBS-t. Binding between Ang2 and 3 kinds of the integrins was verified indirectly by measuring the quantity of anti-FLAG antibody remaining in the ELISA plate through color development reaction using TMB (3,3,5,5-tetramethylbenzidine) as a substrate of HRP. As a negative control, one plate which was blocked without Ang2 protein treatment (BSA treatment only) was used. […]

Tie2 proteins (Q02763) = target: T2, Tie2 proteins (Q02763) (Homo sapiens, UniProt Q02763); assay: ELISA: binding of Ang2 protein (wild type or Q362A) to coated Tie2; settings: Tie2 coated ELISA plates; FIG. 12
T2 construct: purchased R&D systems
T2 sequence (Q02763 23-1124): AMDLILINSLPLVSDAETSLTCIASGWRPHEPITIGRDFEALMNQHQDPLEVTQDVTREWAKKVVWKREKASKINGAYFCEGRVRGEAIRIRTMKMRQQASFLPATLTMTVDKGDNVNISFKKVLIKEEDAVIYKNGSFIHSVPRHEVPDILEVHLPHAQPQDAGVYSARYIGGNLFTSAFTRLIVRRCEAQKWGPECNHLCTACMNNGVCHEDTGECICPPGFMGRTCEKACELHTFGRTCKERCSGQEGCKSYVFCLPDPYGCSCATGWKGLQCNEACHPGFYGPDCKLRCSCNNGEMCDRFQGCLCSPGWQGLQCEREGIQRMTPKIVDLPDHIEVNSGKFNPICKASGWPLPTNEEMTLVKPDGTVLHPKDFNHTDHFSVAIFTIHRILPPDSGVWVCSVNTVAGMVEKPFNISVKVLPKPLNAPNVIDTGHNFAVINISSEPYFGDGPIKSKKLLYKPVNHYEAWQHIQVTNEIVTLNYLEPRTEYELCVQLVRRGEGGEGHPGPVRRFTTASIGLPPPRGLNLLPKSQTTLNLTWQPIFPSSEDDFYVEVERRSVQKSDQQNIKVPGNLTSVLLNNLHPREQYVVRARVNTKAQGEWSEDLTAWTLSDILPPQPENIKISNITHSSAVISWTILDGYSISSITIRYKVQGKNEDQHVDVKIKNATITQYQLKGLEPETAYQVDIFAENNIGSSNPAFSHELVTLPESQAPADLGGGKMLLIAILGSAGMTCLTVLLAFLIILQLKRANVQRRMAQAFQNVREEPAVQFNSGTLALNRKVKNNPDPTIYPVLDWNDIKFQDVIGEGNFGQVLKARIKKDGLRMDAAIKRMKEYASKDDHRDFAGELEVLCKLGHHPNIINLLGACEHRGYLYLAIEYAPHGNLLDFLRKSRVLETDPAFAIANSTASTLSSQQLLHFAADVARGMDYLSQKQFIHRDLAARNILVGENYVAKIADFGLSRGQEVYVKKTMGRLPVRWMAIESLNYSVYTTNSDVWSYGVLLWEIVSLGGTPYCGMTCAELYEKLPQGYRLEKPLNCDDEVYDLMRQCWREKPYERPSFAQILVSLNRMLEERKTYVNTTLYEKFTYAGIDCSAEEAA
Excerpt: The Y axis represents binding levels of each Ang2 protein to coated Tie2 or negative control BSA.

With “EYWLG NEFVS QLTNQ (EYWLGNEFVSQLTNQ; Synthetic Peptide 15) [SEQ ID No. 15, 15 consecutive amino acids (352 to 366) of the Ang2 protein]” the “Ang2 dependent cell adhesion inhibition activity” value (U87MG cells [1]; listed as 15) was “best Ang2 dependent cell adhesion inhibition activity”, the “Ang2 dependent cell adhesion inhibition activity” value (U87MG cells [1]; listed as Peptide 15) was “excellent Ang2-dependent cell adhesion inhibition activity” and the “inhibition activity against the binding of Ang2 and integrin” value (“inhibition activity against the binding” for short) (U87MG cells [1]) was “remarkably high inhibition activity”.

In the case of “HTTNG IYTLT FPNST (HTTNGIYTLTFPNST; Synthetic Peptide 3) [SEQ ID No. 3]”, the “inhibition activity against the binding” value (U87MG cells [1]) is reported as “remarkably high inhibition activity; also recorded: excellent integrin-Ang2 binding inhibition activity”.

“IYTLT FPNST EEIKA (IYTLTFPNSTEEIKA; Synthetic Peptide 4) [SEQ ID No. 4]” was tested, and the “inhibition activity against the binding” value (U87MG cells [1]) was “remarkably high inhibition activity; also recorded: excellent integrin-Ang2 binding inhibition activity”.

With “LNYRI HLKGL TGTAG (LNYRIHLKGLTGTAG; Synthetic Peptide 24) [SEQ ID No. 24]” the “inhibition activity against the binding” value (U87MG cells [1]) was “remarkably high inhibition activity”.

In the case of “NEFVS QLTNQ QRYVL (NEFVSQLTNQQRYVL; Synthetic Peptide 16) [SEQ ID No. 16]”, the “inhibition activity against the binding” value (U87MG cells [1]) is reported as “remarkably high inhibition activity”.

With “QLTNQ QRYVL KIHLK (QLTNQQRYVLKIHLK; Synthetic Peptide 17) [SEQ ID No. 17]” the “inhibition activity against the binding” value (U87MG cells [1]) was “remarkably high inhibition activity”.

“WKGSG YSLKA TTMMI (WKGSGYSLKATTMMI; Synthetic Peptide 40) [SEQ ID No. 40]” was tested, and the “inhibition activity against the binding” value (U87MG cells [1]) was “remarkably high inhibition activity”.

B1: Q362A: FLAG-Ang2 protein modified form where glutamine at amino acid 362 (SEQ ID No. 42) is substituted by alanine (protein)
chain: MWQIVFFTLSCDLVLAAAYNNFRKSMDSIGKKQYQVQHGSCSYTFLLPEMDNCRSSSSPYVSNAVQRDAPLEYDDSVQRLQVLENIMENNTQWLMKLENYIQDNMKKEMVEIQQNAVQNQTAVMIEIGTNLLNQTAEQTRKLTDVEAQVLNQTTRLELQLLEHSLSTNKLEKQILDQTSEINKLQDKNSFLEKKVLAMEDKHIIQLQSIKEEKDQLQVLVSKQNSIIEELEKKIVTATVNNSVLQKQQHDLMETVNNLLTMMSTSNSAKDPTVAKEEQISFRDCAEVFKSGHTTNGIYTLTFPNSTEEIKAYCDMEAGGGGWTIIQRREDGSVDFQRTWKEYKVGFGNPSGEYWLGNEFVSALTNQQRYVLKIHLKDWEGNEAYSLYEHFYLSSEELNYRIHLKGLTGTAGKISSISQPGNDFSTKDGDNDKCICKCSQMLTGGWWFDACGPSNLNGMYYPQRQNTNKFNGIKWYYWKGSGYSLKATTMMIRPADF
modifications: FLAG tag; Human Ang2 protein
In the case of B1, the “induction level of cancer cell invasion compared with wild type Ang2 protein” value (U87MG cells [2]) is reported as “remarkably low induction level of cancer cell invasion (approximately half or so)”, the “binding level to integrin relative to wild type Ang2” value (integrin (αVβ3)) is reported as no more than 50% and the “inhibition of Ang2-integrin binding by Q362A modification” value (integrin (αVβ3)) is reported as no less than 50%. For the same molecule, the “binding level to Tie2 compared with wild type Ang2” value (Tie2 proteins (Q02763)) was “did not show any significant differences”.
